Results on 23 molecules are retold here after patent US7981879B2, “HIV integrase inhibitors” (Instituto di Ricerchi di Biologia Molecolare P. Angeletti …, priority 2005, dated 2011).

One test has as its system HIV. As to the kind of experiment: Assay for inhibition of HIV replication (spread assay): acute HIV infection of T-lymphoid cells. Type of test: cell-based. Conditions: Human immunodeficiency virus 1, T-lymphoid, read-out: CIC95, inhibition of HIV replication. Here is the method: Assays for the inhibition of acute HIV infection of T-lymphoid cells (alternatively referred to herein as the “spread assay”) were conducted in accordance with Vacca, J. P. et al., Proc. Natl. Acad. Sci. USA 1994, 91: 4096. […] The other compounds in Table 1 were tested in the spread assay up to 1 micromolar, but specific IC95 values were not obtained; i.e., the IC95 values were greater than 1 micromolar. It is believed, however, that the IC95 values of these compounds would be less than about 50 micromolar.
In the case of `CN1Cn2c(nc(C(=O)NCc3ccc(F)cc3)c(O)c2=O)C12CCCCC2` [Compound 1, N-(4-fluorobenzyl)-3′-hydroxy-7′-methyl-4′-oxo-6′,7′-dihydro-4′H-spiro[cyclohexane-1,8′-imidazo[1,5-a]pyrimidine]-2′-carboxamide], the IC95 was under 1000 nM.

Still in this test, the particulars now being: Human immunodeficiency virus 1; spread assay, T-lymphoid cells; read-out: CIC95, inhibition of HIV replication.
Take `CN1Cn2c(nc(C(=O)NCc3ccc(F)cc3S(C)(=O)=O)c(O)c2=O)C1(C)C` [Compound 2, N-[4-fluoro-2-(methylsulfonyl)benzyl]-3-hydroxy-7,8,8-trimethyl-4-oxo-4,6,7,8-tetrahydroimidazo[1,5-a]pyrimidine-2-carboxamide]: the IC95 was under 1000 nM.
Still for that read-out and setting: the value for `CN1Cn2c(nc(C(=O)NCc3ccc(F)cc3)c(O)c2=O)C1(C)C` [Compound 5, N-(4-fluorobenzyl)-3-hydroxy-7,8,8-trimethyl-4-oxo-4,6,7,8-tetrahydroimidazo[1,5-a]pyrimidine-2-carboxamide] was under 1000 nM.
The same measure, in the same setting: under `CC1(C)c2nc(C(=O)NCc3ccc(F)cc3)c(O)c(=O)n2CN1Cc1cccnc1` [Compound 6, N-(4-fluorobenzyl)-3-hydroxy-8,8-dimethyl-4-oxo-7-(pyridin-3-ylmethyl)-4,6,7,8-tetrahydroimidazo[1,5-a]pyrimidine-2-carboxamide] stands under 1000 nM; under `O=C(NCc1ccc(F)cc1)c1nc2n(c(=O)c1O)CCNC2COCc1ccccc1` (centres unmarked) [Compound 9, 9-[(benzyloxy)methyl]-N-(4-fluorobenzyl)-3-hydroxy-4-oxo-6,7,8,9-tetrahydro-4H-pyrazino[1,2-a]pyrimidine-2-carboxamide], under 1000 nM; under `CN1CCn2c(nc(C(=O)NCc3ccc(F)cc3)c(O)c2=O)C1COCc1ccccc1` (centres unmarked) [Compound 11, 9-[(benzyloxy)methyl]-N-(4-fluorobenzyl)-3-hydroxy-8-methyl-4-oxo-6,7,8,9-tetrahydro-4H-pyrazino[l,2-a]pyrimidine-2-carboxamide], 1000 to 10000 nM.
The same measure, in the same setting: the value for `CC(=O)N1CCn2c(nc(C(=O)NCc3ccc(F)cc3)c(O)c2=O)C1COCc1ccccc1` (centres unmarked) [Compound 12, 8-acetyl-9-[(benzyloxy)methyl]-N-(4-fluorobenzyl)-3-hydroxy-4-oxo-6,7,8,9-tetrahydro-4H-pyrazino[1,2-a]pyrimidine-2-carboxamide] was 1000 to 10000 nM; that for `CSCC1NCCn2c1nc(C(=O)NCc1ccc(F)cc1)c(O)c2=O` (centres unmarked) [Compound 27, N-(4-fluorobenzyl)-3-hydroxy-9-[(methylthio)methyl]-4-oxo-6,7,8,9-tetrahydro-4H-pyrazino[1,2-a]pyramidine-2-carboxamide] was under 1000 nM; that for `CN1CCn2c(nc(C(=O)NCc3ccc(F)cc3)c(O)c2=O)C1CS(C)(=O)=O` (centres unmarked) [Compound 28, N-(4-fluorobenzyl)-3-hydroxy-8-methyl-9-[(methylsulfonyl)methyl]-4-oxo-6,7,8,9-tetrahydro-4H-pyrazino[1,2-a]pyrimidine-2-carboxamide] was 1000 to 10000 nM.
On to `O=C(NCc1ccc(F)cc1)c1nc2n(c(=O)c1O)CCNC21CCOCC1` [Compound 29, N-(4-fluorobenzyl)-3′-hydroxy-4′-oxo-2,3,5,6,7′,8′-hexahydro-4′H,6′H-spiro[pyran-4,9′-pyrazino[1,2-a]pyrimidine]-2′-carboxamide], for which the IC95 was under 1000 nM.
In the case of `CN1CCn2c(nc(C(=O)NCc3ccc(F)cc3)c(O)c2=O)C12CCOCC2` [Compound 30, N-(4-fluorobenzyl)-3′-hydroxy-8′-methyl-4′-oxo-2,3,5,6,7′,8′-hexahydro-4′H,6′H-spiro[pyran-4,9′-pyrazino[1,2-a]pyrimidine]-2′-carboxamide], the IC95 is under 1000 nM.
Still for that read-out and setting: under `CC1c2nc(C(=O)NCc3ccc(F)cc3)c(O)c(=O)n2CCN1C` (centres unmarked) [Compound 32, N-(4-fluorobenzyl)-3-hydroxy-8,9-dimethyl-4-oxo-6,7,8,9-tetrahydro-4H-pyrazino[1,2-a]pyrimidine-2-carboxamide] stands under 1000 nM.
The same measure, in the same setting: under `CN(C)C(=O)CN1CCn2c(nc(C(=O)NCc3ccc(F)cc3)c(O)c2=O)C1(C)C` [Compound 64, 8-[2-(dimethylamino)-2-oxoethyl]-N-(4-fluorobenzyl)-3-hydroxy-9,9-dimethyl-4-oxo-6,7,8,9-tetrahydro-4H-pyrazino[1,2-a]pyrimidine-2-carboxamide] stands 1000 to 10000 nM; under `CC1(C)NS(=O)(=O)Cn2c1nc(C(=O)NCc1ccc(F)cc1)c(O)c2=O` [Compound 105, N-(4-fluorobenzyl)-3-hydroxy-9,9-dimethyl-4-oxo-8,9-dihydro-4H-pyrimido[2,1-d][1,2,5]thiadiazine-2-carboxamide 7,7-dioxide], 1000 to 10000 nM.
The same measure, in the same setting: the value for `CN1CCn2c(nc(C(=O)NCc3ccc(F)cc3)c(O)c2=O)C(N(C)Cc2ccccc2)C1` (centres unmarked) [Compound 159, 10-[benzyl(methyl)amino]-N-(4-fluorobenzyl)-3-hydroxy-8-methyl-4-oxo-4,6,7,8,9,10-hexahydropyrimido[1,2-d][1,4]diazepine-2-carboxamide] was 1000 to 10000 nM; that for `CN1CCn2c(nc(C(=O)NCc3ccc(F)cc3)c(O)c2=O)C(NC(=O)C(=O)N(C)C)C1` (centres unmarked) [Compound 160, N′-(2-{[(4-fluorobenzyl)amino]carbonyl}-3-hydroxy-8-methyl-4-oxo-4,6,7,8,9,10-hexahydropyrimido[1,2-d][1,4]diazepin-10-yl)-N,N-dimethylethanediamide] was under 1000 nM; that for `CC(=O)N(CC(C)C)C1CN(C)CCn2c1nc(C(=O)NCc1ccc(F)cc1)c(O)c2=O` (centres unmarked) [Compound 161, 10-[acetyl(isobutyl)amino]-N-(4-fluorobenzyl)-3-hydroxy-8-methyl-4-oxo-4,6,7,8,9,10-hexahydropyrimido[1,2-d][1,4]diazepine-2-carboxamide] was under 1000 nM.
With `CN1CCn2c(nc(C(=O)NCc3ccc(F)cc3)c(O)c2=O)C(N(C)S(C)(=O)=O)C1` (centres unmarked) [Compound 163, N-(4-fluorobenzyl)-3-hydroxy-8-methyl-10-[methyl(methylsulfonyl)amino]-4-oxo-4,6,7,8,9,10-hexahydropyrimido[1,2-d][1,4]diazepine-2-carboxamide], the IC95 was under 1000 nM.
On the same count and under the same terms, the value for `COC(=O)N(C)C1CN(C)CCn2c1nc(C(=O)NCc1ccc(F)cc1)c(O)c2=O` (centres unmarked) [Compound 166, methyl (2-{[(4-fluorobenzyl)amino]carbonyl}-3-hydroxy-8-methyl-4-oxo-4,6,7,8,9,10-hexahydropyrimido[1,2-d][1,4]diazepin-10-yl)methylcarbamate] was under 1000 nM.
Still for that read-out and setting: the value for `CC(C)CNC1CN(C)CCn2c1nc(C(=O)NCc1ccc(F)cc1)c(O)c2=O` (centres unmarked) [Compound 169, N-(4-fluorobenzyl)-3-hydroxy-10-(isobutylamino)-8-methyl-4-oxo-4,6,7,8,9,10-hexahydropyrimido[1,2-d][1,4]diazepine-2-carboxamide] was 1000 to 10000 nM.
The same measure, in the same setting: the value for `CC(=O)N(C)C1CN(C)CCn2c1nc(C(=O)NCc1ccc(F)cc1)c(O)c2=O` (centres unmarked) [Compound 170, 10-[acetyl(methyl)amino]-N-(4-fluorobenzyl)-3-hydroxy-8-methyl-4-oxo-4,6,7,8,9,10-hexahydropyrimido[1,2-d][1,4]diazepine-2-carboxamide] was under 1000 nM; that for `CC1(C)NCCCn2c1nc(C(=O)NCc1ccc(F)cc1)c(O)c2=O` [Compound 175, N-(4-fluorobenzyl)-3-hydroxy-10,10-dimethyl-4-oxo-4,6,7,8,9,10-hexahydropyrimido[1,2-a][1,4]diazepine-2-carboxamide] was under 1000 nM.
As for `CN1CCCn2c(nc(C(=O)NCc3ccc(F)cc3)c(O)c2=O)C1(C)C` [Compound 176, N-(4-fluorobenzyl)-3-hydroxy-9,10,10-trimethyl-4-oxo-4,6,7,8,9,10-hexahydropyrimido[1,2-a][1,4]diazepine-2-carboxamide], the IC95 is under 1000 nM.
